According to patent publication US5028733A, “Prostaglandins” (National Research Development Corporation, priority 1980, dated 1991):
Where “and” joins values, the source holds several entries; their conditions need not be identical. Identical values can stand only once.

Columns and labels:
platelet = experiment: Block of the aggregatory action of arachidonic acid on platelets; type: cell-based; conditions: in words
[1] = tested on: bronchoconstriction (collagen); experiment: Modified Konzett-Rossler test, inhibition of bronchoconstriction by collagen; type: in vivo, guinea pig; conditions: 5 min after compound; 1 mg/kg i.v.; insufflation pressure
Method: (§1) In three experiments, each conducted on one male albino guinea pig ([…]) anaesthetised with a mixture of allyl barbituric acid and urethane, the guinea pig was given intravenously a dose of 50 μg/kg of collagen, followed 15 minutes later by 0.35 μg/kg of 11,9-(epoxymethane) PGH2 to give two reliable platelet aggregation responses for each material. After a further period of 10 minutes, the guinea pig was treated intravenously with a dose of 1 mg/kg of 5-endo-(6'-carboxyhex-2'Z-enyl)-6-exo{1'-[N-(phenylthiocarbamoyl)hydrazono]-ethyl}-bicyclo [2,2,1] heptane prepared as described in Example 2. Commencing 5 minutes after the administration of the bicyclo [2,2,1] heptane, the alternate treatments at 15 minute intervals with collagen and 11,9-(epoxymethano) PGH2 were repeated, the second treatment with the latter compound being followed after 15 minutes by a final treatment with collagen. (In the first experiment, only, the last administration of each compound was omitted).
(§2) The same three experiments on guinea pigs described under 1(b) are used to give a measure in a modified Konzett-Rossler test of the inhibition produced by 5-endo-(6'-carboxyhex-2'Z-enyl)-6-exo{1'[N-(phenylthiocarbamoyl)-hydrazono]ethyl}-bicyclo [2,2,1] heptane, prepared as described in Example 2, of the bronchoconstriction resulting from administration of the collagen and the PGH2 derivative. […]

[2] = tested on: bronchoconstriction (PGH2 derivative); experiment: Modified Konzett-Rossler test, inhibition of bronchoconstriction by 11,9-(epoxymethano) PGH2; type: in vivo, guinea pig; conditions: 5 min after compound; 1 mg/kg i.v.; insufflation pressure
Method: as §1, §2

rabbit aorta [3] = experiment: Rabbit aorta strip, antagonism of contraction by 11,9-(epoxymethano) PGH2 (affinity constant KB); type: cell-based; conditions: in words
Method: Spiral strips of thoracic aorta are suspended in Kreb's-Henseleit solution and aerated with 95% O2 /5% CO2 at 37° C. Tension changes are recorded with a Glass FTO3 force transducer. Initially, cumulative dose response curves to 11,9-(epoxymethano) PGH2 (2×10^-9, 1×10^-8, 5×10^-8 and 2.5×10^-7 M) are obtained. In a second experiment the individual compounds are added 30 minutes previous to the addition of the series of agonist doses. In the case of each compound, the affinity constant, KB, for the compound is calculated according to the Gaddum - Schild Equation (based on Law of Mass Action).
(§3) [B]=molar concentration of compound

human platelets = target: T1, human platelets (Homo sapiens, UniProt P21731); experiment: Human platelet system, antagonism of aggregation by 11,9-(epoxymethano) PGH2 (affinity constant KB); type: cell-based; conditions: in words
T1 construct: Platelet-rich plasma is obtained from fresh, citrated human blood; endogenous in cells; host or cells: human platelets in platelet-rich plasma
T1 sequence (P21731 1-343): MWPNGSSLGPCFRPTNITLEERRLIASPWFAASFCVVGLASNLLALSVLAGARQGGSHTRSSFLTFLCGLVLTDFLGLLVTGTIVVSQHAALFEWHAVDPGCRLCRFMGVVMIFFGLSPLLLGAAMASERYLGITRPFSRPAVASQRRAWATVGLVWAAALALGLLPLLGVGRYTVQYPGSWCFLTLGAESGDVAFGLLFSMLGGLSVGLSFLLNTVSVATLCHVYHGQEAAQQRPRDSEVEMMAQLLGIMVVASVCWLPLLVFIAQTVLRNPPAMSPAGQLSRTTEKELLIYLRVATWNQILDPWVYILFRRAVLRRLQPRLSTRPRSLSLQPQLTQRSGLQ
Method: Platelet-rich plasma is obtained from fresh, citrated human blood. Addition of the 11,9-(epoxymethano) PGH2 (1×10^-7 to 5×10^-7 M) causes immediate aggregation recorded as an increase in light transmission (600 nm). In a second experiment the individual compounds are added five minutes previous to the addition of the PGH2 analogue. The dose of the PGH2 analogue added is then increased to a level which gives a similar response to that obtained in the absence of antagonist. The affinity constant, KB, for the compound is calculated according to the Gaddum - Schild Equation (based on Law of Mass Action).
as §3

[4] = tested on: platelet aggregation (collagen); experiment: In vivo inhibition of platelet aggregation in rats (collagen); design: species or system male Sprague-Dawley rats; conditions: for Percentage Fall in platelet count on administering collagen, After, mean: mean of 6 rats, compound 1 mg/kg i.v.
Method: (§4) The technique employed in this test was basically that of Smith and Freuler, Bibl. anat., 1973, 12, 229-234, which utilises the Technicon Autocounter and provides a completely automated system for counting platelets and cells. Blood is continuously sampled from a suitable artery and to avoid the use of an anticoagulant, a double cannula is used which enables 3.8%, w/v aqueous trisodium citrate to be pumped to the tip of the cannula and the citrated blood then to be removed at 0.1 ml/minute and diluted in the manifold where the red cells are lysed with 1% w/v ammonium oxalate/0.002% w/v saponin solution. The platelets are then counted optically and the count continuously recorded on precalibrated chart paper.
Each of a group of six male Sprague-Dawley rats anaesthetised with pentabarbitone was injected intravenously with 40 μg/kg of collagen followed, 15 minutes later, by 80 μg/kg of collagen, which gives a dose-dependent and reproducible fall in platelet count. Ten minutes after the second injection of collagen, the rats were treated intravenously with a dose of 1 mg/kg of 5-endo-(6'-carboxyhex-2'Z-enyl)-6-exo-{1'-[N-(phenylthiocarbamoyl)-hydrazono]ethyl}-bicyclo [2,2,1] heptane prepared as described in Example 2. At 5 and 20 minutes after the administration of this compound a further 40 μg/kg and 80 μg/kg of collagen, respectively, were administered. The levels of platelet aggregation resulting from the administration of the collagen before and after the administration of the bicyclo [2,2,1] heptane were recorded continuously as indicated above.

[5] = tested on: platelet aggregation (11,9-(epoxymethano) PGH2); experiment: In vivo inhibition of platelet aggregation in guinea pigs (11,9-(epoxymethano) PGH2); design: species or system male albino guinea pig
Method: as §4, with “paper. In three experiments, each conducted on one male albino guinea pig ([…]) anaesthetised with a mixture of allyl barbituric acid and urethane, the guinea pig was given intravenously a dose of 50 μg/kg of collagen, followed 15 minutes later by 0.35 μg/kg of 11,9-(epoxymethane) PGH2 to give two reliable platelet aggregation responses for each material. […] (In the first experiment, only, the last administration of each compound was omitted).” for “paper.”

[6] = tested on: platelet aggregation (collagen); experiment: In vivo inhibition of platelet aggregation in guinea pigs (collagen); design: species or system male albino guinea pig
Method: as §4, §1

rabbit aorta [7] = experiment: Block of the contractile action of noradrenaline in the rabbit aorta strip test; type: cell-based; conditions: in words
[8] = PGH2 deriv. 0.35 μg/kg, average of experiments
[9] = collagen 50 μg/kg, average of experiments

## CC(=NNC(=S)Nc1ccccc1)[C@H]1[C@@H]2CC[C@@H](C2)[C@@H]1C/C=C\CCCC(=O)O (relative stereo) [Example 2, 5-endo(6'-Carboxyhex-2'Z-enyl)-6-exo-{1'-[N-(phenylthiocarbamoyl)-hydrazono]-ethyl}-bicyclo [2,2,1] heptane]
platelet
  aggregatory action of arachidonic acid: block the aggregatory action of arachidonic acid
[1]
  inhibition of the bronchoconstricting effect of collagen: complete inhibition
[2]
  inhibition of the bronchoconstricting effect of the PGH2 derivative: complete inhibition
Rabbit aorta [3]
  antagonist in the rabbit aorta strip test: pure antagonists in the rabbit aorta strip test
Human platelets
  antagonist in the platelet test: antagonists in the platelet test
[4]; 40 μg/kg collagen, before vs after compound 1 mg/kg i.v.
  average response to collagen: significantly reduced
[4]; 40 μg/kg collagen, t=2.25 (5Df)
  P, one tailed paired t-test, reduction of average response: < 0.05
[4]; collagen 40 μg/kg i.v., 5 min after 1 mg/kg i.v. compound
  Percentage Fall in platelet count on administering collagen, After, individual rat: 14.0 Percentage and 13.3 Percentage and 14.6 Percentage and 25.0 Percentage and 18.5 Percentage and 19.4 Percentage
[4]; collagen 40 μg/kg
  Percentage Fall in platelet count on administering collagen, After, mean: 17.47 Percentage
[4]; collagen 80 μg/kg i.v., 20 min after 1 mg/kg i.v. compound
  Percentage Fall in platelet count on administering collagen, After, individual rat: 18.3 Percentage and 27.1 Percentage and 28.4 Percentage and 34.4 Percentage and 34.5 Percentage and 28.2 Percentage
[4]; collagen 80 μg/kg
  Percentage Fall in platelet count on administering collagen, After, mean: 28.5 Percentage
[5]; PGH2 deriv. 0.35 μg/kg, 20 min after 1 mg/kg i.v. compound, single animal
  Percentage Inhibition of platelet aggregation, 20 min: 75.7 Percentage and 85.2 Percentage and 83.7 Percentage
[5]; PGH2 deriv. 0.35 μg/kg, 50 min after 1 mg/kg i.v. compound, single animal
  Percentage Inhibition of platelet aggregation, 50 min: 65.5 Percentage and 64.6 Percentage
[5]; [8]
  Percentage Inhibition of platelet aggregation, 20 min, Average: 81.5 Percentage
  Percentage Inhibition of platelet aggregation, 50 min, Average: 65.1 Percentage
[5]; guinea pig, 1 mg/kg i.v.
  platelet aggregation produced by 11,9-(epoxymethano) PGH2, in words: caused an inhibition of the platelet aggregation
[6]; collagen 50 μg/kg, 5 min after 1 mg/kg i.v. compound, single animal
  Percentage Inhibition of platelet aggregation, 5 min: 73.6 Percentage and 64.5 Percentage and 68.3 Percentage
[6]; collagen 50 μg/kg, 35 min after 1 mg/kg i.v. compound, single animal
  Percentage Inhibition of platelet aggregation, 35 min: 67.3 Percentage and 64.4 Percentage and 56.1 Percentage
[6]; collagen 50 μg/kg, 65 min after 1 mg/kg i.v. compound, single animal
  Percentage Inhibition of platelet aggregation, 65 min: 56.1 Percentage and 51.5 Percentage
[6]; [9]
  Percentage Inhibition of platelet aggregation, 5 min, Average: 68.8 Percentage
  Percentage Inhibition of platelet aggregation, 35 min, Average: 62.6 Percentage
  Percentage Inhibition of platelet aggregation, 65 min, Average: 53.8 Percentage
[6]; guinea pig, 1 mg/kg i.v.
  platelet aggregation produced by collagen, in words: caused an inhibition of the platelet aggregation
Rabbit aorta [7]
  contractile action of noradrenaline (α-adrenoceptors): do not block the contractile action of noradrenaline
